The results in this text go back to ChEMBL document CHEMBL1141580, “Studies on the chemical constituents and anticancer activity of Saxifraga stolonifera (L) Meeb” (2008).

Activity calls are given as the source filed them. No cut-off for these calls is given here.

Test [1] deals with BGC-823. The test can be described thus: Growth inhibition of human BGC823 cells at 10 uM after 72 hrs by MTT assay relative to control. In kind it is functional. As to conditions: BGC-823, 72 h, read-out: GI.
Test [2] concerns BGC-823. The test can be described thus: Growth inhibition of human BGC823 cells at 50 uM after 72 hrs by MTT assay relative to control. The class given is functional. As to conditions: BGC-823, 72 h, read-out: GI. A general note: Tetrazolium assays rely on reduction of a dye to a coloured formazan, in cell work by metabolically active cells.
Test [3] has as its system BGC-823. In words: Growth inhibition of human BGC823 cells at 5 uM after 72 hrs by MTT assay relative to control. The class given is functional. As to conditions: BGC-823, 72 h, read-out: GI.
Test [4] relates to BGC-823. The test can be described thus: Growth inhibition of human BGC823 cells at 100 uM after 72 hrs by MTT assay relative to control. The note with it: BGC-823, 72 h, read-out: GI. In kind it is functional.
The test system of test [5] is BGC-823. In words: Induction of apoptosis in human BGC823 cells at 20 uM after 48 hrs by flow cytometry. The class given is functional. In general terms: A flow cytometer gives signals particle by particle.
For test [6], the system named is BGC-823. The test can be described thus: Induction of apoptosis in human BGC823 cells at 20 uM after 12 hrs by flow cytometry. In kind it is functional.
Test [7] relates to BGC-823. In words: Induction of apoptosis in human BGC823 cells at 20 uM after 36 hrs by flow cytometry. In kind it is functional.
The test system of test [8] is BGC-823. The test can be described thus: Induction of apoptosis in human BGC823 cells at 20 uM after 24 hrs by flow cytometry. The class given is functional.
For test [9], the system named is BGC-823. In words: Induction of apoptosis in human BGC823 cells at 100 uM after 24 hrs by flow cytometry. In kind it is functional.
Test [10] deals with BGC-823. In words: Induction of apoptosis in human BGC823 cells assessed as increase in DNA fragmentation at 50 uM after 48 hrs. In kind it is functional, cell-based.
In test [11] the test system is BGC-823. In words: Induction of apoptosis in human BGC823 cells at 100 uM after 12 hrs by flow cytometry. In kind it is functional.
For test [12], the system named is BGC-823. In words: Induction of apoptosis in human BGC823 cells at 100 uM after 36 hrs by flow cytometry. In kind it is functional.
Test [13] relates to BGC-823. In words: Induction of apoptosis in human BGC823 cells at 100 uM after 48 hrs by flow cytometry. In kind it is functional.
Test [14] deals with BGC-823. In words: Induction of apoptotic bodies in human BGC823 cells at 50 uM after 48 hrs. The class given is functional, cell-based.
In test [15] the test system is BGC-823. The test can be described thus: Effect on cell morphology in human BGC823 cells assessed as chromosomal condensations at 50 uM. The class given is functional, cell-based.
Test [16] relates to BGC-823. In words: Induction of apoptosis in human BGC823 cells assessed as increase in DNA fragmentation at 100 uM after 48 hrs. In kind it is functional, cell-based.

In the case of `O=C(O)c1cc(O)c(O)c(O)c1` [GALLIC ACID], the inhibition of growth at 10 µM in the test with BGC-823 [1] was found to be 10.2%. The inhibition of growth at 50 µM in the test with BGC-823 [2] came out at 16.7%. Moreover, the inhibition of growth at 5 µM in the test on BGC-823 [3] was determined as 6.7%. In addition, the inhibition of growth at 100 µM in the test on BGC-823 [4] is 22.5%.

With `CC[C@@]1(O)C(=O)OCc2c1cc1n(c2=O)Cc2cc3cc(O)ccc3nc2-1` [HYDROXYCAMPTOTHECIN], the Activity with BGC-823 [5] came to 6.47%; in the test with BGC-823 [6] it was 3.72%; in the test on BGC-823 [7], 13.2%; in the test with BGC-823 [8], 4.78%.

Regarding `CCCCCCCCCCCCCCCCCCCCCCCCCCCCC` [NONACOSANE], the inhibition of growth at 10 µM in the test on BGC-823 [1] was -5.2%. In addition, in the test on BGC-823 [2], the inhibition of growth at 50 µM is -5.6%. Moreover, in the test on BGC-823 [3], the inhibition of growth at 5 µM is -0.9%. In addition, the inhibition of growth at 100 µM in the test with BGC-823 [4] was -6.6%.

With `C[C@@H]1O[C@@H](Oc2c(-c3ccc(O)c(O)c3)oc3cc(O)cc(O)c3c2=O)C(O)[C@H](O)C1O` (single isomer, unassigned) [QUERCITRIN], the inhibition of growth at 10 µM in the test with BGC-823 [1] is 3.8%. Further, the inhibition of growth at 50 µM with BGC-823 [2] was determined as 5.2%. Moreover, the inhibition of growth at 5 µM in the test on BGC-823 [3] turned out to be 0.2%. Moreover, the inhibition of growth at 100 µM in the test with BGC-823 [4] turned out to be 10.6%.

In the case of `CCCCCCCCCCCCCCCCCCCCCCCCCCCCCCC` [HENTRIACONTANE], the inhibition of growth at 10 µM in the test with BGC-823 [1] was found to be 3.9%. Also, the inhibition of growth at 50 µM with BGC-823 [2] turned out to be 7%. The inhibition of growth at 5 µM in the test on BGC-823 [3] was found to be 4.5%. For the same compound, the inhibition of growth at 100 µM with BGC-823 [4] was 10.1%.

For `O=c1c(O[C@@H]2O[C@H](CO)C(O)[C@H](O)[C@H]2O)c(-c2ccc(O)c(O)c2)oc2cc(O)cc(O)c12` (single isomer, unassigned) [ISOQUERCETIN], the inhibition of growth at 10 µM in the test on BGC-823 [1] came to 8.4%. In the test on BGC-823 [2], the inhibition of growth at 50 µM stood at 9.2%. Besides, the inhibition of growth at 5 µM in the test with BGC-823 [3] was found to be 1.5%. In addition, in the test on BGC-823 [4], the inhibition of growth at 100 µM was 12.1%.

Take `CC[C@H](CC[C@@H](C)[C@H]1CC[C@H]2[C@@H]3CC=C4C[C@@H](O)CC[C@]4(C)[C@H]3CC[C@]12C)C(C)C` [BETA-SITOSTEROL]: in the test with BGC-823 [1], the inhibition of growth at 10 µM worked out at 8.8%. In addition, in the test on BGC-823 [2], the inhibition of growth at 50 µM came to 15.6%. Moreover, the inhibition of growth at 5 µM with BGC-823 [3] is 0.4%. For the same compound, in the test on BGC-823 [4], the inhibition of growth at 100 µM stood at 20.4%.

As for `O=c1c(O)c(-c2ccc(O)c(O)c2)oc2cc(O)cc(O)c12` [QUERCETIN], the Activity with BGC-823 [9] stood at 11.82%; in the test on BGC-823 [11] it was 5.02%; in the test on BGC-823 [12], 10.19%; in the test on BGC-823 [13] it was 10.23%. The result in the test on BGC-823 [10], in the test on BGC-823 [14], in the test on BGC-823 [15] and with BGC-823 [16] was Active. The inhibition of growth at 10 µM in the test on BGC-823 [1] was determined as 11%. Moreover, the inhibition of growth at 50 µM with BGC-823 [2] was found to be 22.4%. For the same compound, the inhibition of growth at 5 µM with BGC-823 [3] was 7.5%. The inhibition of growth at 100 µM in the test on BGC-823 [4] turned out to be 39.3%.

On to `COc1c(O)cc2c(c1O)[C@@H]1O[C@H](CO)[C@@H](O)[C@H](O)[C@H]1OC2=O` [BERGENIN], for which the inhibition of growth at 10 µM in the test with BGC-823 [1] was found to be 2.2%. Also, in the test with BGC-823 [2], the inhibition of growth at 50 µM came out at 6.1%. In addition, the inhibition of growth at 5 µM in the test with BGC-823 [3] is -0.8%. In the test with BGC-823 [4], the inhibition of growth at 100 µM worked out at 10.8%.
